Read-outs that look alike come from different tables or passages of the source. Values belong to the compound of their own block, whether it stands above or below them.
Legend:
#4 = test: cells; parameters: species or system primary ALL patient cells; 3H-thymidine incorporation proliferation assay in primary ALL patient cells; conditions: 48 h
Experimental: (§1) Synthesis details of YKL-06-101 and JH-XI-10-02 are provided in Supplementary Notes 1 and 2. Proliferation of degrader-exposed human leukemic cell lines and primary ALL patient cells were examined by measuring 3H-thymidine uptake after 48 h. For immunoblottings and FACS analysis, cells were incubated with the indicated concentrations of the degraders up to 96 h.  Fig. 7 Chemical CDK8 degradation cooperates with mTOR inhibition. a Co-expression matrix of CDK8 and members of mTOR/PI3K signaling pathways in samples of 203 pediatric ALL patients (TARGET cohort, RNA-seq) and b 179 AML patients (TCGA AML cohort, RNA-seq). […] DMSO was used as vehicle control (D: DMSO, n = 3). Immunoblots show mTOR, CDK8, and pS6 after incubation of f REH cells or g Z119 cells with 0.5 µM and 1 µM of JH-XI-10-02 or YKL-06-101 for 48, 72, and 96 h. DMSO (indicated as D) was used as vehicle control and β-actin served as loading control. h AnnexinV/7AAD staining of Z119 cells incubated with 0.5 µM and 1 µM of JH-XI-10-02 or YKL-06-101 for 72 and 96 h. DMSO was used as a vehicle control (D: DMSO, n = 3). i AnnexinV/7AAD staining of Z119 cells incubated with Torin1, JH-XI-10-02, or both in combination with indicated concentrations for 72 and 96 h. DMSO (indicated as D) was used as a vehicle control. One representative experiment out of three is depicted. j Bar diagram depicts relative thymidine incorporation of six primary B-ALL patient samples incubated for 48 h with 1 μM of YKL-06-101. Patient #1 represents a non-responder, patient #4 was BCR-ABL1^+ (Ph^+), whereas the others were BCR-ABL1^− (Ph^−). Levels of significance were calculated using Kruskal–Wallis test followed by Dunn’s test, data represents means ± SD (*p < 0.05, **p < 0.01). Source data are provided as a Source Data file

#12 = test: cells; parameters: species or system primary ALL patient cells; 3H-thymidine incorporation proliferation assay in primary ALL patient cells; conditions: 48 h
Experimental: as §1

#1 = test: cells; parameters: species or system primary ALL patient cells; 3H-thymidine incorporation proliferation assay in primary ALL patient cells; conditions: 48 h
Experimental: as §1

#14 = test: cells; parameters: species or system primary ALL patient cells; 3H-thymidine incorporation proliferation assay in primary ALL patient cells; conditions: 48 h
Experimental: as §1

#9 = test: cells; parameters: species or system primary ALL patient cells; 3H-thymidine incorporation proliferation assay in primary ALL patient cells; conditions: 48 h
Experimental: as §1

#7 = test: cells; parameters: species or system primary ALL patient cells; 3H-thymidine incorporation proliferation assay in primary ALL patient cells; conditions: 48 h
Experimental: as §1

#6 = test: cells; parameters: species or system primary ALL patient cells; 3H-thymidine incorporation proliferation assay in primary ALL patient cells; conditions: 48 h
Experimental: as §1

#13 = test: cells; parameters: species or system primary ALL patient cells; 3H-thymidine incorporation proliferation assay in primary ALL patient cells; conditions: 48 h
Experimental: as §1

#11 = test: cells; parameters: species or system primary ALL patient cells; 3H-thymidine incorporation proliferation assay in primary ALL patient cells; conditions: 48 h
Experimental: as §1

#15 = test: cells; parameters: species or system primary ALL patient cells; 3H-thymidine incorporation proliferation assay in primary ALL patient cells; conditions: 48 h
Experimental: as §1

#3 = test: cells; parameters: species or system primary ALL patient cells; 3H-thymidine incorporation proliferation assay in primary ALL patient cells; conditions: 48 h
Experimental: as §1

#8 = test: cells; parameters: species or system primary ALL patient cells; 3H-thymidine incorporation proliferation assay in primary ALL patient cells; conditions: 48 h
Experimental: as §1

CDK8 = CDK8 (Homo sapiens, UniProt P49336); test: CDK8 kinase inhibition IC50 (assay not detailed in main text); assay type: biochemical
CDK8, sequence (P49336 whole entry): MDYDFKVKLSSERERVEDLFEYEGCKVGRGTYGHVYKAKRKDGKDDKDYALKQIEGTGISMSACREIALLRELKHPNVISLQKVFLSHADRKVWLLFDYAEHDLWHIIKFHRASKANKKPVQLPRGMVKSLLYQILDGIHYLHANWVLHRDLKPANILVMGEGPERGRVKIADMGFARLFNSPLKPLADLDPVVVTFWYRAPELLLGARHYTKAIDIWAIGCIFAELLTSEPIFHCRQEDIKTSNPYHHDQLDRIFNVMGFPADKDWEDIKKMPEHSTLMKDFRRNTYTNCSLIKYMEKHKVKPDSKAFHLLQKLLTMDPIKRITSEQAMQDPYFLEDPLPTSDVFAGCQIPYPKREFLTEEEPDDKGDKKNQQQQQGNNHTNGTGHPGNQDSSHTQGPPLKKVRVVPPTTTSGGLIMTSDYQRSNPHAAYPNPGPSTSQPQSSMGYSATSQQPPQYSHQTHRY

Compound: CN(C(=O)CCOCCOCCOCCOCCNc1cccc2c1C(=O)N(C1CCC(=O)NC1=O)C2=O)[C@H]1CC[C@@]2(C)[C@@H](CC[C@@H]3[C@@H]2CC[C@]2(C)[C@@H](c4ccc5ccncc5c4)CC[C@@H]32)C1 (stereo partly shown) [JH-XI-10-02]
IC50 (#4; read-out: JH-XI-10-02 IC50): > 10 µM
IC50 (#12; read-out: JH-XI-10-02 IC50): > 10 µM
IC50 (#1; read-out: JH-XI-10-02 IC50): > 10 µM
IC50 (#14; read-out: JH-XI-10-02 IC50): > 10 µM
IC50 (#9; read-out: JH-XI-10-02 IC50): > 10 µM
IC50 (#7; read-out: JH-XI-10-02 IC50): > 10 µM
IC50 (#6; read-out: JH-XI-10-02 IC50): > 10 µM
IC50 (#13; read-out: JH-XI-10-02 IC50): > 10 µM
IC50 (#11; read-out: JH-XI-10-02 IC50): > 10 µM
IC50 (#15; read-out: JH-XI-10-02 IC50): > 10 µM
IC50 (#3; read-out: JH-XI-10-02 IC50): > 10 µM
IC50 (#8; read-out: JH-XI-10-02 IC50): > 10 µM

Compound: O=C1CCC(N2C(=O)c3cccc(NCCOCCOCCOCCOCCOCCC(=O)N4CCN(c5ccc(-n6c(=O)ccc7cnc8ccc(-c9ccc%10ccncc%10c9)cc8c76)cc5C(F)(F)F)CC4)c3C2=O)C(=O)N1 (stereo not shown) [YKL-06-101]
IC50 (#4; read-out: YKL-06-101 IC50): > 10 µM
IC50 (#12; read-out: YKL-06-101 IC50): > 10 µM
IC50 (#1; read-out: YKL-06-101 IC50): > 10 µM
IC50 (#14; read-out: YKL-06-101 IC50): > 10 µM
IC50 (#9; read-out: YKL-06-101 IC50): 9 µM
IC50 (#7; read-out: YKL-06-101 IC50): > 10 µM
IC50 (#6; read-out: YKL-06-101 IC50): 0.1 µM
IC50 (#13; read-out: YKL-06-101 IC50): 0.3 µM
IC50 (#11; read-out: YKL-06-101 IC50): 0.4 µM
IC50 (#15; read-out: YKL-06-101 IC50): 10 µM
IC50 (#3; read-out: YKL-06-101 IC50): 0.9 µM
IC50 (#8; read-out: YKL-06-101 IC50): > 10 µM

IC50 (CDK8): 0.005 µM
Compound: THZ4-55
